# Key:
# [1] = Hole mobility rate of the hole transporting material; type: physicochemical; conditions: hole transporting layer material
# [2] = Solubility in NMP; type: physicochemical; conditions: NMP solvent
# [3] = cited from earlier work
# [4] = prior art material of CN103108859; cited from earlier work
# [5] = commercially available hole transporting layer material
SMILES,hole mobility rate [1],other results
Cc1ccc(-c2ccc(N(c3ccc(-c4ccccc4)cc3)c3ccc(-c4ccc(N(c5ccc(-c6ccccc6)cc5)c5ccc(-c6ccc(C)cc6)cc5)c5c4CCCC5)cc3)cc2)cc1 [Example 1],0.00041 cm²/(V·s),solubility in NMP [2]: 10000 µg/mL
CC1(C)c2ccccc2-c2ccc(N(c3ccc4c(c3)C3(c5ccccc5-c5ccccc53)c3ccccc3-4)c3ccccc3-c3ccccc3)cc21,,mobility rate ([3]; prior art material of CN103108859): higher; solubility [4]: good
c1ccc(-c2ccc(N(c3ccc(-c4ccccc4)cc3)c3ccc(-c4ccc(N(c5ccc(-c6ccccc6)cc5)c5ccc(-c6ccccc6)cc5)c5c4CCCC5)cc3)cc2)cc1 [Com. Example 3],7×10^−5 cm^2/V·S,
Cc1cc(N(c2ccc(-c3ccccc3)cc2)c2ccc(-c3cccc4c3CCCC4)cc2)ccc1-c1ccc(N(c2ccc(-c3ccccc3)cc2)c2ccc(-c3cccc4c3CCCC4)cc2)cc1 [Example 3],1.8×10^−4 cm^2/V·S,
Cc1cccc(-c2ccc(N(c3ccc(-c4cccc5c4CCCC5)cc3)c3ccc(-c4ccc(N(c5ccc(-c6cccc(C)c6)cc5)c5ccc(-c6cccc7c6CCCC7)cc5)c5c4CCCC5)cc3)cc2)c1 [Example 2],2.1×10^−4 cm^2/V·S,
c1ccc(-c2ccc(N(c3ccc(-c4ccccc4)cc3)c3ccc(N(c4ccc(-c5ccccc5)cc4)c4ccc(-c5ccccc5)cc4)cc3)cc2)cc1 [Com. Example 4],2×10^−4 cm^2/V·S,
Cc1ccc(-c2ccc(N(c3ccc(-c4ccccc4)cc3)c3ccc(-c4ccc(N(c5ccc(-c6ccccc6)cc5)c5ccc(-c6ccc(C)cc6)cc5)cc4)cc3)cc2)cc1 [Com. Example 2],3.5×10^−4 cm^2/V·S,solubility in NMP [2]: 2200 µg/mL
Cc1ccccc1-c1ccc(N(c2ccc(-c3ccccc3)cc2)c2ccc(-c3ccc(N(c4ccc(-c5ccccc5)cc4)c4ccc(-c5ccccc5C)c5c4CCCC5)c4c3CCCC4)cc2)c2c1CCCC2 [Example 4],1.9×10^−4 cm^2/V·S,
c1ccc(-c2ccc(N(c3ccc(-c4ccccc4)cc3)c3ccc(N(c4ccc(-c5ccccc5)cc4)c4ccc(-c5ccccc5)cc4)cc3)cc2)cc1 [drawing 1],,"lateral mobility rate [3, 5]: not very high; longitudinal mobility rate [3, 5]: higher"
c1ccc(-c2ccc(N(c3ccc(-c4ccccc4)cc3)c3ccc(-c4ccc(N(c5ccc(-c6ccccc6)cc5)c5ccc(-c6ccccc6)cc5)cc4)cc3)cc2)cc1 [Com. Example 1],3×10^−4 cm^2/V·S,

# Source: patent US10686136B2, “Hole transporting material, OLED display panel and electronic device comprising the same” (SHANGHAI TIANMA AM-OLED CO., LTD., priority 2016, dated 2020)
